Experimental data: paper PMC4890124, “Antimicrobial activity, improved cell selectivity and mode of action of short PMAP-36-derived peptides against bacteria and Candida” (Scientific Reports, 2016)
Converted amounts (≈) assume the structure as drawn. Marks after values point to notes of the source that are not given here. Peptide text beside a SMILES is read from it.

Key:
[1] = test system: C. albicans CA276 (clinical isolate); experiment: microbe, parasite or virus in culture; type: cell-based, Candida albicans; conditions: CA276 (clinical isolate, 48 h)
Description: (§1) The antifungal activities were monitored in RPMI-1640 broth medium by a 2-fold microdilution assay according to the Clinical and Laboratory Standards Institute (CLSI) methods. The Candida albicans CGMCC 2.2086, Candida tropicalis CGMCC 2.1975, and Candida krusei CGMCC 2.1857 fungal strains were purchased from the China General Microbiological Culture Collection Center (CGMCC, Beijing, China). Clinically isolated Candida albicans CA2761 was provided by the 4th Affiliated Hospital of Harbin Medical University. Briefly, fungal strains were cultured on YPD agar plates (1% peptone, 0.5% yeast extract, 1% glucose and 2% agar) at 28 °C to prepare Candida suspensions with a turbidity of a 0.5 McFarland standard. A total of 50 μl inoculum cell suspension diluted in RPMI-1640 broth medium was added to an equal volume of peptide solution to achieve a final peptide concentrations ranging from 0.25 μM to 128 μM in a 96-well plate. Pure broth alone or with inoculum suspensions was used as the negative control or the positive control, respectively. The plate was incubated at 28 °C for 48 h. MIC was considered the lowest concentration at which no fungal growth was visually observed under experimental conditions. […] After 48 h incubation at 28 °C, MFC was defined as the lowest concentration of peptides that killed at least 99.9% of the initial inoculums. Experiments were performed in triplicate with three biological replicates.

[2] = test system: Salmonella enterica serovar typhimurium C77-31; type: cell-based; conditions: three independent experiments; for MBC S. typhi C77-31: lowest concentration killing at least 99.9% of initial inoculum; for MIC S. typhi C77-31: broth microdilution, MHB, ~1 × 10^5 CFU/ml, 18 h at 37 °C, visual
Protocol: (§2) The peptide antibacterial activity was determined against both gram-positive and gram-negative bacteria strains, including Escherichia coli ATCC 25922, Escherichia coli UB1005, Salmonella enterica serovar typhimurium C77-31, Staphylococcus aureus ATCC 29213, Staphylococcus aureus ATCC 25923, Bacillus subtilis CMCC 63501, and Staphylococcus epidermidis ATCC 12228. Clinically isolated Escherichia coli EC183 was provided by the 4th Affiliated Hospital of Harbin Medical University. MIC of the peptides was measured using a modified version of the National Committee for Clinical Laboratory Standards (NCCLS) broth microdilution method as described previously. The bacterial strains were inoculated and grown to mid-log phase in fresh Mueller-Hinton broth (MHB) at 37 °C. Bacterial inoculum suspensions were prepared at a final concentration of approximately 1 × 10^5 CFU/ml. Peptides were 2-fold serially diluted to make different concentrations, from 0.5 to 256 μM. Equal volumes of inoculum suspensions were then added to each well of a sterile 96-well plate with different concentrations of peptides, and the plate was incubated for 18 h at 37 °C. Broth with or without bacteria was employed as the positive control or the negative control, respectively. MIC was defined as the lowest concentration of peptides that prevented visible turbidity by visual inspection. […] After overnight incubation at 37 °C, MBC was defined as the lowest concentration of peptides that killed at least 99.9% of the initial inoculums. Experiments were performed in triplicate with three biological replicates.

[3] = test system: Staphylococcus aureus ATCC 29213; type: cell-based; conditions: ATCC 29213, 18 h
Protocol: as §2

[4] = test system: Escherichia coli ATCC 25922; type: cell-based; conditions: ATCC 25922, 18 h
Protocol: as §2

[5] = test system: Clinically isolated Escherichia coli EC183; type: cell-based; conditions: Clinically isolated EC183, 18 h
Protocol: as §2

[6] = test system: Staphylococcus aureus ATCC 25923; type: cell-based; conditions: ATCC 25923, 18 h
Protocol: as §2

[7] = test system: Bacillus subtilis CMCC 63501; type: cell-based; conditions: CMCC 63501, 18 h
Protocol: as §2

Escherichia coli UB1005 = type: cell-based; conditions: UB1005, 18 h
Protocol: as §2

[8] = test system: Staphylococcus epidermidis ATCC 12228; type: cell-based; conditions: ATCC 12228, 18 h
Protocol: as §2

[9] = test system: Candida tropicalis CGMCC 2.1975; experiment: microbe, parasite or virus in culture; type: cell-based; conditions: CGMCC 2.1975, 48 h; for MFC: read-out: MFC C. tropicalis 2.1975; for MIC: read-out: MIC C. tropicalis 2.1975
Description: as §1

[10] = test system: Candida albicans CGMCC 2.2086; experiment: microbe, parasite or virus in culture; type: cell-based; conditions: CGMCC 2.2086, 48 h
Description: as §1

[11] = test system: Candida krusei CGMCC 2.1857; experiment: microbe, parasite or virus in culture; type: cell-based; conditions: CGMCC 2.1857, 48 h; for MFC: read-out: MFC C. krusei 2.1857; for MIC: read-out: MIC C. krusei 2.1857
Description: as §1

CC[C@H](C)[C@H](NC(=O)[C@H](Cc1c[nH]c2ccccc12)NC(=O)[C@H](CCCCN)NC(=O)[C@H](CC(C)C)NC(=O)[C@@H](NC(=O)[C@H](CCCCN)NC(=O)CNC(=O)[C@@H](NC(=O)[C@H](CCCCN)NC(=O)[C@H](CCCCN)NC(=O)[C@H](CC(C)C)NC(=O)[C@@H](N)CCCNC(=N)N)[C@@H](C)CC)C(C)C)C(N)=O [RI12] (H-RLKKIGKVLKWI-NH2)
MFC C. albicans CA276 [1]: 128 µM (≈ 190 µg/mL)
MIC C. albicans CA276 [1]: 128 µM (≈ 190 µg/mL)
MBC S. typhi C77-31 [2]: 32 µM (≈ 47.4 µg/mL)
MBC S. aureus 29213 [3]: 128 µM (≈ 190 µg/mL)
MBC E. coli 25922 [4]: 32 µM (≈ 47.4 µg/mL)
MBC E. coli EC183 [5]: 4 µM (≈ 5.92 µg/mL)
MIC E. coli EC183 [5]: 2 µM (≈ 2.96 µg/mL)
MBC S. aureus 25923 [6]: 128^c (128) μM
MBC B. subtilis 63501 [7]: 8 µM (≈ 11.8 µg/mL)
MIC B. subtilis 63501 [7]: 2 µM (≈ 2.96 µg/mL)
MBC E. coli 1005 (Escherichia coli UB1005): 32 µM (≈ 47.4 µg/mL)
MBC S. epidermidis 12228 [8]: 64^c (64) μM
MFC C. tropicalis 2.1975 [9]: 8 µM (≈ 11.8 µg/mL)
MIC C. tropicalis 2.1975 [9]: 8 µM (≈ 11.8 µg/mL)
MFC C. albicans 2.2086 [10]: 128 µM (≈ 190 µg/mL)
MIC C. albicans 2.2086 [10]: 128 µM (≈ 190 µg/mL)
MFC C. krusei 2.1857 [11]: 16 µM (≈ 23.7 µg/mL)
MIC C. krusei 2.1857 [11]: 16 µM (≈ 23.7 µg/mL)

CC[C@H](C)[C@H](NC(=O)[C@H](Cc1c[nH]c2ccccc12)NC(=O)[C@H](CCCCN)NC(=O)[C@H](CC(C)C)NC(=O)[C@@H](NC(=O)[C@H](CCCCN)NC(=O)CNC(=O)[C@@H](NC(=O)[C@H](CCCCN)NC(=O)[C@H](CCCCN)NC(=O)[C@H](CC(C)C)NC(=O)[C@H](CCCNC(=N)N)NC(=O)[C@H](CCCCN)NC(=O)[C@H](CCCNC(=N)N)NC(=O)[C@@H](N)[C@@H](C)O)[C@@H](C)CC)C(C)C)C(N)=O [TI15] (H-TRKRLKKIGKVLKWI-NH2)
MFC C. albicans CA276 [1]: 128 µM (≈ 239 µg/mL)
MIC C. albicans CA276 [1]: 128 µM (≈ 239 µg/mL)
MIC S. typhi C77-31 [2]: 8 µM (≈ 14.9 µg/mL)
MBC S. typhi C77-31 [2]: 32 µM (≈ 59.7 µg/mL)
MBC S. aureus 29213 [3]: 128 µM (≈ 239 µg/mL)
MIC S. aureus 29213 [3]: 32 µM (≈ 59.7 µg/mL)
MBC E. coli 25922 [4]: 16 µM (≈ 29.9 µg/mL)
MIC E. coli 25922 [4]: 8 µM (≈ 14.9 µg/mL)
MBC E. coli EC183 [5]: 4 µM (≈ 7.47 µg/mL)
MIC E. coli EC183 [5]: 2 µM (≈ 3.73 µg/mL)
MBC S. aureus 25923 [6]: 128 µM (≈ 239 µg/mL)
MIC S. aureus 25923 [6]: 32 µM (≈ 59.7 µg/mL)
MBC B. subtilis 63501 [7]: 4 µM (≈ 7.47 µg/mL)
MIC B. subtilis 63501 [7]: 2 µM (≈ 3.73 µg/mL)
MBC E. coli 1005 (Escherichia coli UB1005): 8 µM (≈ 14.9 µg/mL)
MIC E. coli 1005 (Escherichia coli UB1005): 4 µM (≈ 7.47 µg/mL)
MBC S. epidermidis 12228 [8]: 64 µM (≈ 119 µg/mL)
MIC S. epidermidis 12228 [8]: 32 µM (≈ 59.7 µg/mL)
MFC [9]: 4 µM (≈ 7.47 µg/mL)
MIC [9]: 2 µM (≈ 3.73 µg/mL)
MFC C. albicans 2.2086 [10]: 64 µM (≈ 119 µg/mL)
MIC C. albicans 2.2086 [10]: 64 µM (≈ 119 µg/mL)
MFC [11]: 16 µM (≈ 29.9 µg/mL)
MIC [11]: 8 µM (≈ 14.9 µg/mL)

CC[C@H](C)[C@H](NC(=O)[C@H](Cc1c[nH]c2ccccc12)NC(=O)[C@H](CCCCN)NC(=O)[C@H](CC(C)C)NC(=O)[C@@H](NC(=O)[C@H](CCCCN)NC(=O)CNC(=O)[C@@H](NC(=O)[C@H](CCCCN)NC(=O)[C@H](CCCCN)NC(=O)[C@H](CC(C)C)NC(=O)[C@H](CCCNC(=N)N)NC(=O)[C@H](CCCCN)NC(=O)[C@H](CCCNC(=N)N)NC(=O)[C@@H](NC(=O)[C@H](CCCCN)NC(=O)[C@H](CCCCN)NC(=O)[C@@H](N)CCCNC(=N)N)[C@@H](C)O)[C@@H](C)CC)C(C)C)C(N)=O [RI18] (H-RKKTRKRLKKIGKVLKWI-NH2)
MFC [1]: 16 µM (≈ 36.5 µg/mL)
MIC [1]: 8 µM (≈ 18.2 µg/mL)
MIC S. typhi C77-31 [2]: 2 µM (≈ 4.56 µg/mL)
MBC S. typhi C77-31 [2]: 4 µM (≈ 9.12 µg/mL)
MBC S. aureus 29213 [3]: 4 µM (≈ 9.12 µg/mL)
MIC S. aureus 29213 [3]: 4 µM (≈ 9.12 µg/mL)
MBC E. coli 25922 [4]: 4 µM (≈ 9.12 µg/mL)
MIC E. coli 25922 [4]: 2 µM (≈ 4.56 µg/mL)
MBC E. coli EC183 [5]: 2 µM (≈ 4.56 µg/mL)
MIC E. coli EC183 [5]: 1 µM (≈ 2.28 µg/mL)
MBC S. aureus 25923 [6]: 8 µM (≈ 18.2 µg/mL)
MIC S. aureus 25923 [6]: 8 µM (≈ 18.2 µg/mL)
MBC B. subtilis 63501 [7]: 2 µM (≈ 4.56 µg/mL)
MIC B. subtilis 63501 [7]: 1 µM (≈ 2.28 µg/mL)
MBC E. coli 1005 (Escherichia coli UB1005): 4 µM (≈ 9.12 µg/mL)
MIC E. coli 1005 (Escherichia coli UB1005): 2 µM (≈ 4.56 µg/mL)
MBC S. epidermidis 12228 [8]: 16 µM (≈ 36.5 µg/mL)
MIC S. epidermidis 12228 [8]: 4 µM (≈ 9.12 µg/mL)
MFC [9]: 4 µM (≈ 9.12 µg/mL)
MIC [9]: 2 µM (≈ 4.56 µg/mL)
MFC ([10]; read-out: MFC C. albicans 2.2086): 32 µM (≈ 72.9 µg/mL)
MIC ([10]; read-out: MIC C. albicans 2.2086): 16 µM (≈ 36.5 µg/mL)
MFC [11]: 8 µM (≈ 18.2 µg/mL)
MIC [11]: 4 µM (≈ 9.12 µg/mL)
